Assays:
[1] = Surface charge determination by fluorescein test; assay type: physicochemical; details: activated glass coverslips, spin-coated, baked at 110° C. for 60 minutes
Method: Surface cationic density (N^+/cm^2) was calculated using UV/Vis absorbance of fluorescein. Fluorescein dye molecules (negatively charged) strongly bind to quaternary amino groups (positively charged) belonging to the polymeric chain. The stoichiometry of fluorescein binding is estimated at one dye molecule per four quaternary ammonium moieties. Treated plates were placed in a 1% fluorescein aqueous solution for five minutes, and then rinsed and sonicated in distilled water for several minutes in order to remove physisorbed fluorescein. Plates were rinsed with distilled water and immersed in 3 mL of CTAB 0.5% (aqueous solution of cetyltrimehylammonium bromide) along with PBS (Phosphate-Buffered Saline) (90% CTAB/10% PBS) and sonicated for 10 minutes. The optical density of chemisorbed fluorescein was measured at 501 nm wavelength.

[2] = Manual friction / abrasion resistance of electrostatically sprayed coatings on glass slides; assay type: physicochemical; details: glass slide
Method: A glass slide was treated according to the following protocol: • 1) The surface was prepared by cleaning with isopropanol, and allowed to dry; • 2) The sprayer was held about 1 m from the target surface. • 3) The titanium anatase phase in aqueous solution (a mixture of peroxotitanic acid and peroxo-modified anatase sol 0.8%) was sprayed onto the surface using an electrostatic sprayer to form a coating on the target surface. • 4) The surface was allowed to dry for 5 to 10 minutes. • 5) The electrostatic sprayer was rinsed with distilled water. • 6) The biocidal polymer coating solution was added to the sprayer tank. • 7) The biocidal polymer coating solution was sprayed onto the surface at a 1 m distance away from the surface. • 8) The surface was examined to ensure it was not over-saturated with coating solution. • 9) The surface was allowed to dry for several hours.
A second glass slide was treated according to the protocol described above, except the surface was coated with the biocidal polymer solution first, followed by the titanium anatase phase.
In both methods, it was observed that the coating resisted repeated manual friction (over 20 cycles) using both wetted and dry paper towel, cotton-based cloth, and polyester/polypropylene wipes.
Treated and control glass slides were transferred to a 1% fluorescein solution for 10 minutes. […]

CCCCCCCCCCCCCCCCCC[N+](C)(C)CC(=O)c1ccc(O)c(O)c1
Calculated surface cationic density [1]: 4×10^14 cations/cm^2

CCCCCCCCCCCCCCCCCC[N+](C)(C)CCC[Si](OC)(OC)OC.[Cl-] [octadecyldimethyl(3-trimethoxysilylpropyl)ammonium chloride]
resistance of coating to repeated manual friction ([2]; sprayed with titanium anatase 0.8%, wetted and dry paper towel, cotton cloth, polyester/polypropylene wipes): did not resist manual friction
abrasion resistance by fluorescein test after manual friction ([2]; titanium anatase sprayed first, then the coating solution): did not resist minor abrasion

— patent publication US20250143307A1 (priority 2021, published 2025)
